From ChEMBL document CHEMBL5608221, “Innovative Therapeutic Approaches Targeting K-Ras: Analysis of Macrocyclic Compounds, Peptidomimetics, and Pyridopyrimidine Inhibitors” (ACS Med Chem Lett, 2024)

Target: GTPase KRas (Homo sapiens, UniProt P01116, G12V)
Assay: Inhibition of GDP bound KRAS G12V mutant (unknown origin)

Sequence of GTPase KRas (P01116 whole entry G12V): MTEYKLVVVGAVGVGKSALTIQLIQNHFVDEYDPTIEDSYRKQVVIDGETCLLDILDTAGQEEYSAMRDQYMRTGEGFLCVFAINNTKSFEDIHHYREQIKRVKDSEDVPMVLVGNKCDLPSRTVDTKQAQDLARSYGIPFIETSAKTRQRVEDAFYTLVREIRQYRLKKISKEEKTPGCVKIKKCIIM

Compound	IC50 [nM]
[2H]C([2H])([2H])N(c1nc(OC([2H])([2H])C23CCC([2H])([2H])N2C[C@@]([2H])(F)C3)nc2c(F)c(-c3cc(O)cc4ccc(F)c(C#C)c34)ncc12)[C@H]1C[C@@H]1F (some centres not stated)	0.689
C#Cc1c(F)ccc2cc(O)cc(-c3ncc4c(N(C)[C@H]5C[C@@H]5F)nc(OCC56CCCN5CC(=C)C6)nc4c3F)c12 (some centres not stated)	0.405
C#Cc1c(F)ccc2cc(N)cc(-c3ncc4c(N(C)[C@H]5C[C@@H]5F)nc(OCC56CCCN5CC(=C)C6)nc4c3F)c12.OCC(F)(F)F (some centres not stated)	1.99
C#Cc1c(F)ccc2cc(O)cc(-c3ncc4c(N(C)[C@H]5C[C@@H]5F)nc(OC[C@]56CCCN5CC(=C)C6)nc4c3F)c12	0.589

Now those with a lower IC50, led by results:

IC50 [nM]	Compound
0.371	C#Cc1c(F)ccc2cc(O)cc(-c3ncc4c(N(C)[C@H]5C[C@@H]5F)nc(OCC56CCCN5CC(=C)C6)nc4c3F)c12.OCC(F)(F)F (some centres not stated)
0.246	C#Cc1c(F)ccc2cc(O)cc(-c3ncc4c(N(C)[C@H]5C[C@@H]5F)nc(OC[C@@]56CCCN5CC(=C)C6)nc4c3F)c12
0.216	[2H]C([2H])([2H])N(c1nc(OC([2H])([2H])C23CCC([2H])([2H])N2C[C@]([2H])(F)C3)nc2c(F)c(-c3cc(O)cc4ccc(F)c(C#C)c34)ncc12)[C@H]1C[C@@H]1F (some centres not stated)
